Experiment: Ex vivo radiometabolite analysis
Format: in vivo, CD1 mice
Conditions: 30 min post-injection, n = 3
Procedure: Female CD1 mice (20 weeks old, n = 3) were injected with [^18F]TAAR1-2203 (100 µCi, 3.7 MBq) and sacrificed 30 min post-injection. Brain, pancreas, and plasma samples were collected. Organs were homogenized in ice-cold acetonitrile (CH3CN). Plasma was obtained by centrifugation at 1400 rpm for 5 min at 4 °C, and proteins were precipitated with repeated CH3CN extraction until clear supernatants were obtained. Analytical samples were spiked with non-radioactive TAAR1-2203 and analyzed by radio-HPLC (XBridge C18 column; CH3CN/H₂O 35:65, with 0.1% TEA; flow rate 1.0 mL/min). Parent tracer fractions were determined as the percentage of intact [^18F]TAAR1-2203 relative to total detected radioactivity.

Cc1c([18F])cccc1[C@H]1COC(N)=N1 [[^18F]TAAR1-2203]
exceeded 80%: Parent tracer fraction in brain | Parent tracer fraction in pancreas | Parent tracer fraction in plasma
